Measured values taken from publication PMC11480993, “Combining Data-Driven and Structure-Based Approaches in Designing Dual PARP1-BRD4 Inhibitors for Breast Cancer Treatment” (Journal of Chemical Information and Modeling, 2024).
Where two headings read alike, the source gives them in different places.

Experiments:
BRD4 [1] = conditions: cited from earlier work
PARP1 [2] = tested on: PARP1; parameters: method as in PMID 34813314, PMID 35091172, PMID 33532187, PMID 35442700, PMID 24481311; conditions: known dual PARP1-BRD4 inhibitors ref 15-19; cited from earlier work
SW1990 cell = tested on: SW1990 cell; parameters: method as in PMID 34813314, PMID 35091172, PMID 33532187, PMID 35442700, PMID 24481311; conditions: 4 days; pancreatic cancer ref 15-19; cited from earlier work
CFPAC-1 cell = tested on: CFPAC-1 cell; parameters: method as in PMID 34813314, PMID 35091172, PMID 33532187, PMID 35442700, PMID 24481311; conditions: 4 days; pancreatic cancer ref 15-19; cited from earlier work
Capan-1 cell = tested on: Capan-1 cell; parameters: method as in PMID 34813314, PMID 35091172, PMID 33532187, PMID 35442700, PMID 24481311; conditions: 4 days; pancreatic cancer ref 15-19; cited from earlier work
MCF-7 cells = test: Cell viability (MTT), MCF-7; type: cell-based; conditions: Homo sapiens, MCF7, 96 h; 4-day treatment, wild-type BRCA
Protocol: (§1) MDA-MB-231, MDA-MB-436, and MCF-7 cells were seeded into 96-well plates with the number of 5 × 10^3 in each cell and allowed to incubate for 24 h. Subsequently, various concentrations of the test compounds (ranging from 100 to 0.78 μM with twice gradient dilution) were introduced. After 4 days of incubation, MTT solution was applied, and the cells were incubated for an additional 4 h. Following the removal of the supernatant, the violet crystals were dissolved in 200 μL of DMSO, and the absorbance was measured at 570 nm.

[3] = Solubility observed during activity testing; type: physicochemical; conditions: compared with HF2
Protocol: The inhibitory effects of both enzymes were measured for HF1 and HF2. […] The large discrepancy in BRD4 activities could be attributed to the nonplanar scaffold of HF1, which appears to fit more effectively into the hydrophobic environment formed by Val87, Phe83, and Ile146 (Figure 5B, right). […] Before proceeding further, we made the decision to examine PJ34, a potent and nonselective PARP1 inhibitor,[13] to assess its impact on BRD4 inhibition. […] Given the strong PARP1 activity and relatively low micromolar BRD4 activity of PJ34 relative to HF1 and HF2, we contemplated whether substituting PJ34’s scaffold with that of HF1 could synergistically enhance BRD4 affinity while maintaining strong PARP1 affinity.

MDA-MB-231 cells = test: Cell viability (MTT), MDA-MB-231; type: cell-based; conditions: Homo sapiens, MDA-MB-231, 96 h; 4-day treatment, wild-type BRCA
Protocol: as §1

PARP1 [4] = molecular target: PARP1 (Homo sapiens, UniProt P09874); test: In vitro PARP1 enzymatic activity (ELISA, biotinylated NAD+, luminescence); type: biochemical
Sequence of PARP1 (Homo sapiens, UniProt P09874) (P09874 whole entry): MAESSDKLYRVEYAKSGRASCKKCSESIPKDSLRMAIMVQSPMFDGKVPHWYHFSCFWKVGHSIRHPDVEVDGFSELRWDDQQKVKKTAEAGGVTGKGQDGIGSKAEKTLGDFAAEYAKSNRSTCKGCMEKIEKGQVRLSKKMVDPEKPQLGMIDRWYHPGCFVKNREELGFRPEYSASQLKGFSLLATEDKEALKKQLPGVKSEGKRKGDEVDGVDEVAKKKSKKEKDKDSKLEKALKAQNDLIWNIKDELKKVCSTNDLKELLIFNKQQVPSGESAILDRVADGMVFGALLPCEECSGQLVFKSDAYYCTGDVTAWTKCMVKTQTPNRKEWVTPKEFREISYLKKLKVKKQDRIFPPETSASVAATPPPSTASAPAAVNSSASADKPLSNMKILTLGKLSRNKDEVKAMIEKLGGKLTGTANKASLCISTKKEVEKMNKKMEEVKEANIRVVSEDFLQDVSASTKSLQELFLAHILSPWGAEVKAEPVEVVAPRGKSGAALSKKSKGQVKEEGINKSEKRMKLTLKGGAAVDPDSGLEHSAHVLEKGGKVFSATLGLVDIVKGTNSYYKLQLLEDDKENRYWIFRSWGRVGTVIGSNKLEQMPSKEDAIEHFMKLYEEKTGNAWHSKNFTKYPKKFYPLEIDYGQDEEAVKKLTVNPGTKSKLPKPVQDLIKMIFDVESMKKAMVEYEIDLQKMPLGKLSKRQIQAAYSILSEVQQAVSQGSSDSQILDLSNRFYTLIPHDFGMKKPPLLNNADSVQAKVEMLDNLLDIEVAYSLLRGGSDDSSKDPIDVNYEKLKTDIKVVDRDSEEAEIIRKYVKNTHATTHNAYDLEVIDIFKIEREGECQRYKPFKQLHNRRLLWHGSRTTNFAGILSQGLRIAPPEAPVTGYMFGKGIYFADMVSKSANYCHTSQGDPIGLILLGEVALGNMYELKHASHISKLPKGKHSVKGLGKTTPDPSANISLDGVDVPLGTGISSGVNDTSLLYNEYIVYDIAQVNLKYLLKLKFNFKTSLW
Protocol: The inhibition of the tested compounds on PARP1 enzymatic activity was determined by ELISA in 96-well plates. Each well was precoated with histone (20 μg/mL) diluted in 100 μL of PBS buffer (10 mM NaH2PO4, 100 mM Na2HPO4, 150 mM NaCl, pH 7.4) by incubation at 4 °C overnight. […] The reaction was initiated by the addition of 20 μL of PARP1 (50 ng/well) at 30 °C for 1 h. Then the reaction solution was added to 50 μL of streptavidin conjugated HRP. The assay was performed at 30 °C for an additional 30 min. Finally, 100 μL of solution (H2O2 and luminol in citrate buffer 0.1 M, pH 5.4) was added and luminescent signal was measured using a multiwell spectrophotometer (Molecular Devices SpectraMax M5 microplate reader).

BRD4 [5] = molecular target: BRD4 (Homo sapiens, UniProt O60885); test: BRD TR-FRET assay, BRD4; type: binding
Protocol: The assay was performed by TR-FRET technology using a BRD and its corresponding ligand (BET). The TR-FRET signal from the assay is correlated with the amount of ligand binding to the bromodomain. All of the binding reactions were conducted at room temperature. The 20 μL reaction mixture in Assay Buffer contains either bromodomains, BET Ligand, and the indicated amount of inhibitor. For the negative control (blank), 5 μL of the assay buffer was added instead of the BET ligand. The reaction mixture was incubated for 120 min. After the incubation with the ligand, the TR-FRET signal was measured using a Tecan Infinite M1000 plate reader.

MDA-MB-231 = tested on: MDA-MB-231; parameters: method as in PMID 34813314, PMID 35091172, PMID 33532187, PMID 35442700, PMID 24481311; conditions: 3 days; breast cancer ref 15-19; cited from earlier work
MDA-MB-468 = tested on: MDA-MB-468; parameters: method as in PMID 34813314, PMID 35091172, PMID 33532187, PMID 35442700, PMID 24481311; conditions: 3 days; breast cancer ref 15-19; cited from earlier work
MDA-MB-436 cells = test: Cell viability (MTT), MDA-MB-436; type: cell-based; conditions: Homo sapiens, MDA-MB-436, 96 h; 4-day treatment, BRCA mutant
Protocol: as §1

PARP1 [6] = test: Western blot, PARP1 expression in MCF-7 cells; type: cell-based; conditions: MCF-7, 48 h treatment
Protocol: (§2) Following a 48 h treatment, cellular proteins were extracted using RIPA cell lysis buffer containing protease and phosphatase inhibitor cocktail. The protein concentration was assessed by using a BCA assay. Subsequently, equal amounts of these proteins were loaded onto an SDS-PAGE gel and transferred onto a PVDF membrane. The protein-loaded membrane was then blocked using a commercial blocking solution (Beyotime, China) and sequentially incubated with primary and secondary antibodies. Protein bands were visualized using an ECL chemiluminescence kit and quantified using ImageJ software.

BRD4 [7] = test: Western blot, BRD4 expression in MCF-7 cells; type: cell-based; conditions: MCF-7, 48 h treatment
Protocol: as §2

[8] = known dual PARP1-BRD4 inhibitors ref 15-19

Question: What does the source list for `Cc1noc(C)c1-c1ccc2c(c1)C(c1ccccc1)N(Cc1nc3c(C(N)=O)cccc3[nH]1)C(=O)N2C` (stereo not shown) [III-7]?
Answer: IC50 (BRD4 [1]; [8]): 0.202 µM; IC50 (PARP1 [2]): 0.049 µM; IC50 (SW1990 cell): 1.34 ± 0.16 µM; IC50 (CFPAC-1 cell): 1.31 ± 0.11 µM; IC50 (Capan-1 cell): 1.71 ± 0.21 µM

Question: Which results are given for `Cc1cc(S(=O)(=O)Nc2ccc3[nH]c(=O)c4c(c3c2)CCCC4)ccc1F` [HF1, 4-fluoro-3-methyl-N-(6-oxo-5,6,7,8,9,10-hexahydrophenanthridin-2-yl)benzenesulfonamide]?
Answer: IC50 (MCF-7 cells): 11.4 µM; solubility during activity testing [3]: higher solubility; IC50 (MDA-MB-231 cells): 31.9 µM; IC50 (PARP1 [4]): 0.094 µM; IC50 (BRD4 [5]): 3.56 ± 0.951 µM; BRD4 potency relative to HF2 (BRD4 [5]; more potent than HF2): 10 times; IC50 (BRD4 [5]; value of the text): 3.5 µM

Question: With `COc1ccccc1S(=O)(=O)Nc1ccc2c(c1)CN(C)C(=O)N2` [PFI-1, reference compound] as the compound, how does the IC50 (BRD4 [1]) read?
Answer: 0.22 µM

Question: And the inhibition at 10 µM (PARP1 [4]; 10 μM, read-out: PARP1 inhibition rate)?
Answer: 10%

Question: For `CC[C@@H]1C(=O)N(C)c2cnc(N(C)c3ccc(-c4nc5c(C(N)=O)cccc5[nH]4)cc3OC)nc2N1C1CCCC1` [III-16], which IC50 (BRD4 [1]; [8]) is on record?
Answer: 0.101 µM

Question: What about the IC50 (PARP1 [2]) of the same compound?
Answer: 0.013 µM

Question: And the IC50 (SW1990 cell)?
Answer: 0.98 ± 0.13 µM

Question: Which IC50 (BRD4 [1]; [8]) does the source give for `COc1cc(OC)c2c(=O)[nH]c(-c3cccc(Cc4n[nH]c(=O)c5ccccc45)c3)nc2c1` [BP44] here?
Answer: 0.238 µM

Question: And the IC50 (PARP1 [2])?
Answer: 0.197 µM

Question: What about the IC50 (MDA-MB-231) of the same compound?
Answer: 6.61 ± 0.58 µM

Question: And the IC50 (MDA-MB-468)?
Answer: 3.01 ± 0.83 µM

Question: For `CN(C)CC(=O)Nc1ccc2[nH]c(=O)c3ccccc3c2c1` [PJ34, 2-(dimethylamino)-N-(6-oxo-5,6-dihydrophenanthridin-2-yl)acetamide, reference compound], which IC50 (BRD4 [5]) is on record?
Answer: 2.07 ± 0.588 µM

Question: Which results are given for `CN(C)CC(=O)Nc1ccc2[nH]c(=O)c3c(c2c1)CCCC3` [HF3, 2-(dimethylamino)-N-(6-oxo-5,6,7,8,9,10-hexahydrophenanthridin-2-yl)acetamide]?
Answer: IC50 (PARP1 [4]): 0.016 µM; IC50 (BRD4 [5]): 28.8 ± 6.99 µM; IC50 (BRD4 [5]; value of the text): ~28 µM

Question: With `CCc1cc2cc(NC(=O)CN(C)C)ccc2[nH]c1=O` [HF5, 2-(dimethylamino)-N-(3-ethyl-2-oxo-1,2-dihydroquinolin-6-yl)acetamide] as the compound, how does the IC50 (PARP1 [4]) read?
Answer: 0.736 µM

Question: What about the IC50 (BRD4 [5]) of the same compound?
Answer: 34.3 ± 7.9 µM

Question: And the IC50 (BRD4 [5]; value of the text)?
Answer: ~34.3 µM

Question: For `O=C(c1cc(Cc2n[nH]c(=O)c3ccccc23)ccc1F)N1CCN(C(=O)C2CC2)CC1` [Olaparib, olaparib, reference compound], which IC50 (MCF-7 cells) is on record?
Answer: 27.2 ± 3.5 µM

Question: What about the IC50 (MDA-MB-436 cells) of the same compound?
Answer: 2.2 µM

Question: What about the IC50 (MDA-MB-231 cells) of the same compound?
Answer: 13.9 ± 2.6 µM

Question: Which IC50 (PARP1 [4]) does the source give for `Cc1cc(S(=O)(=O)Nc2ccc3[nH]c(=O)c4ccccc4c3c2)ccc1F` [HF2] here?
Answer: 0.339 ± 0.086 µM

Question: And the IC50 (BRD4 [5])?
Answer: 32.6 ± 6.34 µM

Question: For `COc1cc(OC)c2c(=O)[nH]c(-c3ccc(OCCOc4ccccc4C(N)=O)cc3)nc2c1` [ADTL-BPI1901], which IC50 (BRD4 [1]; [8]) is on record?
Answer: 0.4 µM

Question: What about the IC50 (PARP1 [2]) of the same compound?
Answer: 4.6 µM

Question: And the IC50 (MDA-MB-231)?
Answer: 15.6 ± 1.72 µM

Question: And the IC50 (MDA-MB-468)?
Answer: 6.42 ± 1.31 µM

Question: For `Cc1sc2c(c1C)C(c1ccc(Cl)cc1)=N[C@@H](CC(=O)OC(C)(C)C)c1nnc(C)n1-2` [JQ1, reference compound], which IC50 (MCF-7 cells) is on record?
Answer: 0.9 ± 0.1 µM

Question: What about the PARP1 expression (PARP1 [6]) of the same compound?
Answer: significant increase

Question: And the BRD4 expression (BRD4 [7])?
Answer: significantly enhances its levels

Question: And the IC50 (MDA-MB-436 cells)?
Answer: 4.7 ± 1.9 µM

Question: And the IC50 (MDA-MB-231 cells)?
Answer: 1.2 ± 0.4 µM

Question: For `COc1cc(OC)c2c(=O)[nH]c(-c3cc(C)c(OCCO)c(C)c3)nc2c1` [RVX-208, apabetalone, reference compound], which “activity against PARP1” value (PARP1 [4]; at 10 μM) is on record?
Answer: no activity
